# Assay results as given in US20250171445A1, “DEUTERIUM-ENRICHED PIPERIDINYL-METHYL-PURINE AMINE SALTS, CRYSTALLINE FORMS, AND THEIR USE IN TREATING MEDICAL DISEASES AND CONDITIONS” (K36 Therapeutics, Inc., priority 2023, published 2025).
# Biological target: T1, recombinant human NSD2 (Homo sapiens, UniProt O96028)
# T1 construct: (amino acids 2-end); His tag (N); host or cells: Sf9 insect cells
# T1 sequence (O96028 2-1365 limits assumed): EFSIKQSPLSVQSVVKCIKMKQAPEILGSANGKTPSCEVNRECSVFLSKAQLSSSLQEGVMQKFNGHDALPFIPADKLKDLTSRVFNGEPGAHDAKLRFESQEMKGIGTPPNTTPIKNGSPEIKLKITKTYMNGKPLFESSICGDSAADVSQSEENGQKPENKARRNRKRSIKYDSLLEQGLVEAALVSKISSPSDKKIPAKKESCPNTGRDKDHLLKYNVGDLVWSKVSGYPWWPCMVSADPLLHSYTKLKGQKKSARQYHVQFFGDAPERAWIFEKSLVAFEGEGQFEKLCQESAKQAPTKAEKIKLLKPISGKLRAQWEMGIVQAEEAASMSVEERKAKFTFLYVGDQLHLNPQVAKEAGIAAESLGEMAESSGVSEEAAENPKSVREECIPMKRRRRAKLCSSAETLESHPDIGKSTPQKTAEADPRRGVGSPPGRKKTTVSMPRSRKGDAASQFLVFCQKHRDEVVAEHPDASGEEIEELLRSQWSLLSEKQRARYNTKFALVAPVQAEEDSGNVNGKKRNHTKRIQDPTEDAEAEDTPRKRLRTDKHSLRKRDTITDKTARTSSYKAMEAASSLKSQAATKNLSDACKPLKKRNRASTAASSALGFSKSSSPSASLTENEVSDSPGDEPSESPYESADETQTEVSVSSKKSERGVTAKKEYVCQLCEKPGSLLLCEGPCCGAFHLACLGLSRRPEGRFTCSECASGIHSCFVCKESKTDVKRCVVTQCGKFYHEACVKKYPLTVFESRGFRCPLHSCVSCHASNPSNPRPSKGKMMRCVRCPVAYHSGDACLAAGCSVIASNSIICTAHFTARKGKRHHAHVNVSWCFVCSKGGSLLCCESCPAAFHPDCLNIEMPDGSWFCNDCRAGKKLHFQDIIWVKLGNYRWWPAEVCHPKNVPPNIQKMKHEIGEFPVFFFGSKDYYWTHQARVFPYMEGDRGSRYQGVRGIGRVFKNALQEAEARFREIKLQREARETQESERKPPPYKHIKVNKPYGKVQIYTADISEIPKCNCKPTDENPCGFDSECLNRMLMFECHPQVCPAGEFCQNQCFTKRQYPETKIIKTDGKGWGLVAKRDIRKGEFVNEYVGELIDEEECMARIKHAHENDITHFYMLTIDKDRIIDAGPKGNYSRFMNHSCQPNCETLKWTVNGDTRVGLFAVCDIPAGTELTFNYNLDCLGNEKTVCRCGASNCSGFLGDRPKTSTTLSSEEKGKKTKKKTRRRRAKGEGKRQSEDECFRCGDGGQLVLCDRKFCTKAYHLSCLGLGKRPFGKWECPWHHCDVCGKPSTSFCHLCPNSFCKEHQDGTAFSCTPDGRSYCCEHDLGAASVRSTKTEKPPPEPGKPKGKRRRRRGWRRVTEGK
# Test: NSD2 inhibition assay (3H-SAM histone methyltransferase, oligonucleosome substrate)
# Assay type: biochemical
# Conditions: recombinant human NSD2 (aa 2-end, His tag) 2 nM, chicken oligonucleosomes 0.05 mg/ml, 3H-SAM 1 μM, 1 hour at 30° C.
# Description: The NSDS2 inhibitory activity of a compound can be evaluated using a NSD2 inhibition assay, such as the NSD2 inhibition assay described herein below.
# A reaction mixture can be prepared by adding oligonucleosomes from Chicken (0.05 mg/ml) to freshly prepared reaction buffer containing 50 mM Tris-HCl (pH 8.5), 50 mM NaCl, 5 mM MgCl2, 0.01% Brij35, 1 mM DTT, and 1% DMSO followed by the addition of recombinant human NSD2, (amino acids 2-end) with N-terminal His tag (2 nM; GenBank Accession No. NM_001042424; MW=155.5 kDa; expressed in Sf9 insect cells) and gentle mixing. The test compound is diluted in DMSO, added to the reaction mixture in nanoliter amounts (using, e.g., Acoustic Technology (Echo 550, LabCyte Inc. Sunnyvale, CA)) and incubated for 20 minutes at room temperature. The reaction may be initiated by addition of S-Adenosyl-L-[methyl-3H]methionine (3H-SAM; 1 μM), and the mixture is then incubated for 1 hour at 30° C. The reaction mixture can be delivered to filter paper and the methylated substrate quantified by scintillation counting. Data analysis may be performed using Excel and GraphPad Prism software for IC50 curve fits. For additional information on the histone methyltransferase assay, see, for example, Horiuchi K Y, et al., “Assay Development for Histone Methyltransferases,” Assay Drug Dev Technol. 2013 May; 11(4):227-36.
compound,measurement,value
[2H]C([2H])([2H])Oc1cc(F)c(-c2cc(Cn3cnc4c(N)ncnc43)c(N3CCC[C@](N)([C@H](O)C(F)F)C3)cn2)cc1F,IC50,< 10 nM
